According to patent US6355799B1, “Substituted benzene compounds, process for their preparation, and herbicidal and defoliant compositions containing them” (ISK Americas Incorporated, priority 1997, dated 2002):

Tests used:
Format in all cases: in vivo
[1] = tested on: upland rice (Oryza sp., var. Tebonnet, RICE); assay: Post-emerge test, crop safety; settings: post-emerge; for phytotoxicity rating RICE (crop damage): 14 days after application, rating scale 0-100; for Post-emerge Herbicidal Activity RICE: crop damage rating 0-100 at 14 days after application
Procedure, shortened: (§1)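 Visual ratings on a 0-100 scale (0 no damage, 100 all plants dead) were taken at 14 days after treatment. Rates of 15-1000 g ai/ha in acetone, 187 l/ha, were sprayed onto soil one day after planting (pre-emerge) or onto 2-3 leaf plants with 0.25% v/v surfactant (post-emerge).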

[2] = tested on: field corn (Zea mays L., var. Dekalb 535, CORN); assay: Post-emerge test, crop safety; settings: post-emerge; for phytotoxicity rating CORN (crop damage): 14 days after application, rating scale 0-100; for Post-emerge Herbicidal Activity CORN: crop damage rating 0-100 at 14 days after application
Procedure, shortened: as §1

[3] = tested on: ivyleaf morningglory (Ipomoea hederacea, IPOHE); assay: Post-emerge test, greenhouse herbicide activity screening; settings: post-emerge; for phytotoxicity rating IPOHE: 14 days after application, rating scale 0-100; for Post-emerge Herbicidal Activity IPOHE: phytotoxicity rating 0-100 at 14 days after application
Procedure, shortened: (§2)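 Rating: 0–100 visual injury, 14 DAA. Application: acetone, 187 l/ha, 15–1000 g ai/ha, flat-fan track sprayer with nozzle 40–45 cm above soil or canopy. Post-emerge runs used 0.25% v/v surfactant on 2–3 leaf plants.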

[4] = tested on: lambsquarters (Chenopodium album, CHEAL); assay: as above; settings: post-emerge; for phytotoxicity rating CHEAL: 14 days after application, rating scale 0-100; for Post-emerge Herbicidal Activity CHEAL: phytotoxicity rating 0-100 at 14 days after application
Procedure, shortened: as §2

[5] = tested on: green foxtail (Setaria viridis, SETVI); assay: as above; settings: post-emerge; for phytotoxicity rating SETVI: 14 days after application, rating scale 0-100; for Post-emerge Herbicidal Activity SETVI: phytotoxicity rating 0-100 at 14 days after application
Procedure, shortened: as §2

[6] = tested on: redroot pigweed (Amaranthus retroflexus, AMARE); assay: as above; settings: post-emerge; for phytotoxicity rating AMARE: 14 days after application; for Post-emerge Herbicidal Activity AMARE: phytotoxicity rating 0-100 at 14 days after application
Procedure, shortened: as §2

[7] = tested on: johnsongrass (Sorghum halepense, SORHA); assay: as above; settings: post-emerge; for phytotoxicity rating SORHA: 14 days after application, rating scale 0-100; for Post-emerge Herbicidal Activity SORHA: phytotoxicity rating 0-100 at 14 days after application
Procedure, shortened: as §2

[8] = tested on: sicklepod (Cassia obtusifolia, CASOB); assay: as above; settings: post-emerge; for phytotoxicity rating CASOB: 14 days after application, rating scale 0-100; for Post-emerge Herbicidal Activity CASOB: phytotoxicity rating 0-100 at 14 days after application
Procedure, shortened: as §2

[9] = tested on: velvetleaf (Abutilon theophrasti, ABUTH); assay: as above; settings: post-emerge; for phytotoxicity rating ABUTH: 14 days after application, rating scale 0-100; for Post-emerge Herbicidal Activity ABUTH: phytotoxicity rating 0-100 at 14 days after application
Procedure, shortened: as §2

[10] = tested on: large crabgrass (Digitaria sanguinalis, DIGSA); assay: as above; settings: post-emerge; for phytotoxicity rating DIGSA: 14 days after application, rating scale 0-100; for Post-emerge Herbicidal Activity DIGSA: phytotoxicity rating 0-100 at 14 days after application
Procedure, shortened: as §2

[11] = tested on: upland rice (Oryza sp., var. Tebonnet, RICE); assay: Pre-emerge test, crop safety
Procedure, shortened: (§3)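 Compounds in acetone were track-sprayed at 187 l/ha, 15–1000 g ai/ha, onto sandy loam pots. Pre-emerge seeds were sown one day before spraying, with surface watering afterwards. Post-emerge plants were at the 2–3 leaf stage and sprayed with 0.25% v/v non-ionic surfactant. Injury was rated 0–100 at 14 days.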

[12] = tested on: field corn (Zea mays L., var. Dekalb 535, CORN); assay: Pre-emerge test, crop safety
Procedure, shortened: as §3

[13] = tested on: redroot pigweed (Amaranthus retroflexus, AMARE); assay: Pre-emerge test, greenhouse herbicide activity screening
Procedure, shortened: as §3

[14] = tested on: barnyardgrass (Echinochloa crus-galli, ECHCG); assay: as above
Procedure, shortened: as §1

[15] = tested on: ivyleaf morningglory (Ipomoea hederacea, IPOHE); assay: as above
Procedure, shortened: as §1

[16] = tested on: lambsquarters (Chenopodium album, CHEAL); assay: as above
Procedure, shortened: as §1

[17] = tested on: green foxtail (Setaria viridis, SETVI); assay: as above
Procedure, shortened: as §1

[18] = tested on: johnsongrass (Sorghum halepense, SORHA); assay: as above
Procedure, shortened: as §1

[19] = tested on: sicklepod (Cassia obtusifolia, CASOB); assay: as above
Procedure, shortened: as §1

[20] = tested on: velvetleaf (Abutilon theophrasti, ABUTH); assay: as above
Procedure, shortened: as §1

[21] = tested on: large crabgrass (Digitaria sanguinalis, DIGSA); assay: as above
Procedure, shortened: as §1

[22] = 63 g ai/ha, crop damage rating 0-100, 14 days after application
[23] = 250 g ai/ha, crop damage rating 0-100, 14 days after application
[24] = 63 g ai/ha, phytotoxicity rating 0-100, 14 days after application
[25] = 250 g ai/ha, phytotoxicity rating 0-100, 14 days after application
[26] = crop damage, pre-emerge, rate 63 g ai/ha, phytotoxicity rating 0-100 at 14 days after application
[27] = crop damage, pre-emerge, rate 250 g ai/ha, phytotoxicity rating 0-100 at 14 days after application
[28] = pre-emerge, rate 63 g ai/ha, phytotoxicity rating 0-100 at 14 days after application
[29] = pre-emerge, rate 250 g ai/ha, phytotoxicity rating 0-100 at 14 days after application

COc1c(Cl)cc(F)c(-n2c(=O)cc(C(F)(F)F)n(C)c2=O)c1NC(=O)Oc1c(C)cc(C)cc1C [4-25]
15: phytotoxicity rating CORN (crop damage) ([2]; 250 g ai/ha)
85: phytotoxicity rating CHEAL ([4]; 250 g ai/ha)
60: phytotoxicity rating IPOHE ([3]; 250 g ai/ha) | Pre-emerge Herbicidal Activity CHEAL [16, 24] | Pre-emerge Herbicidal Activity ABUTH [20, 25]
30: phytotoxicity rating SETVI ([5]; 250 g ai/ha) | phytotoxicity rating CASOB ([8]; 250 g ai/ha) | Pre-emerge Herbicidal Activity AMARE [13, 24]
95: phytotoxicity rating ABUTH ([9]; 250 g ai/ha)
100: phytotoxicity rating AMARE ([6]; 250 g ai/ha, rating scale 0-100) | Pre-emerge Herbicidal Activity AMARE [13, 25] | Pre-emerge Herbicidal Activity CHEAL [16, 25]
40: phytotoxicity rating IPOHE ([3]; 63 g ai/ha)
70: phytotoxicity rating AMARE ([6]; 63 g ai/ha, rating scale 0-100 (0 no damage, 100 complete death)) | phytotoxicity rating ABUTH ([9]; 63 g ai/ha)
75: phytotoxicity rating CHEAL ([4]; 63 g ai/ha)
5: phytotoxicity rating CORN (crop damage) ([2]; 63 g ai/ha)
20: phytotoxicity rating RICE (crop damage) ([1]; 250 g ai/ha) | phytotoxicity rating SETVI ([5]; 63 g ai/ha) | phytotoxicity rating CASOB ([8]; 63 g ai/ha) | Pre-emerge Herbicidal Activity CASOB [19, 25]
10: phytotoxicity rating SORHA ([7]; 250 g ai/ha) | Pre-emerge Herbicidal Activity DIGSA [21, 25]
50: Pre-emerge Herbicidal Activity SETVI [17, 25]
0: phytotoxicity rating RICE (crop damage) ([1]; 63 g ai/ha) | phytotoxicity rating SORHA ([7]; 63 g ai/ha) | phytotoxicity rating DIGSA ([10]; 63 g ai/ha) | phytotoxicity rating DIGSA ([10]; 250 g ai/ha) | Pre-emerge Herbicidal Activity RICE [11, 22] | Pre-emerge Herbicidal Activity RICE [11, 23] | Pre-emerge Herbicidal Activity CORN [12, 22] | Pre-emerge Herbicidal Activity CORN [12, 23] | Pre-emerge Herbicidal Activity ECHCG [14, 24] | Pre-emerge Herbicidal Activity ECHCG [14, 25] | Pre-emerge Herbicidal Activity IPOHE [15, 24] | Pre-emerge Herbicidal Activity IPOHE [15, 25] | Pre-emerge Herbicidal Activity SETVI [17, 24] | Pre-emerge Herbicidal Activity SORHA [18, 24] | Pre-emerge Herbicidal Activity SORHA [18, 25] | Pre-emerge Herbicidal Activity CASOB [19, 24] | Pre-emerge Herbicidal Activity ABUTH [20, 24] | Pre-emerge Herbicidal Activity DIGSA [21, 24]

COc1c(Cl)cc(F)c(N2C(=O)C3=C(CCCC3)C2=O)c1NC(=O)C=Cc1ccccc1 [8-31]
60: Post-emerge Herbicidal Activity CASOB ([8]; 63 g ai/ha) | Pre-emerge Herbicidal Activity ABUTH [20, 28]
0: Pre-emerge Herbicidal Activity RICE [11, 26] | Pre-emerge Herbicidal Activity CORN [12, 26] | Pre-emerge Herbicidal Activity ECHCG [14, 28] | Pre-emerge Herbicidal Activity ECHCG [14, 29] | Pre-emerge Herbicidal Activity IPOHE [15, 28] | Pre-emerge Herbicidal Activity SORHA [18, 28] | Pre-emerge Herbicidal Activity CASOB [19, 28] | Pre-emerge Herbicidal Activity DIGSA [21, 28]
80: Post-emerge Herbicidal Activity CASOB ([8]; 250 g ai/ha)
100: Post-emerge Herbicidal Activity IPOHE ([3]; 63 g ai/ha) | Post-emerge Herbicidal Activity IPOHE ([3]; 250 g ai/ha) | Post-emerge Herbicidal Activity CHEAL ([4]; 63 g ai/ha) | Post-emerge Herbicidal Activity CHEAL ([4]; 250 g ai/ha) | Post-emerge Herbicidal Activity AMARE ([6]; 63 g ai/ha) | Post-emerge Herbicidal Activity AMARE ([6]; 250 g ai/ha) | Post-emerge Herbicidal Activity ABUTH ([9]; 63 g ai/ha) | Post-emerge Herbicidal Activity ABUTH ([9]; 250 g ai/ha) | Pre-emerge Herbicidal Activity AMARE [13, 29] | Pre-emerge Herbicidal Activity CHEAL [16, 28] | Pre-emerge Herbicidal Activity CHEAL [16, 29]
95: Pre-emerge Herbicidal Activity ABUTH [20, 29]
45: Post-emerge Herbicidal Activity RICE ([1]; 63 g ai/ha)
30: Post-emerge Herbicidal Activity RICE ([1]; 250 g ai/ha) | Post-emerge Herbicidal Activity SORHA ([7]; 250 g ai/ha) | Post-emerge Herbicidal Activity DIGSA ([10]; 250 g ai/ha) | Pre-emerge Herbicidal Activity RICE [11, 27] | Pre-emerge Herbicidal Activity IPOHE [15, 29]
90: Pre-emerge Herbicidal Activity AMARE [13, 28]
20: Post-emerge Herbicidal Activity SETVI ([5]; 63 g ai/ha) | Post-emerge Herbicidal Activity SETVI ([5]; 250 g ai/ha) | Pre-emerge Herbicidal Activity CASOB [19, 29]
10: Post-emerge Herbicidal Activity CORN ([2]; 63 g ai/ha) | Post-emerge Herbicidal Activity CORN ([2]; 250 g ai/ha) | Post-emerge Herbicidal Activity SORHA ([7]; 63 g ai/ha) | Post-emerge Herbicidal Activity DIGSA ([10]; 63 g ai/ha) | Pre-emerge Herbicidal Activity CORN [12, 27] | Pre-emerge Herbicidal Activity SETVI [17, 28] | Pre-emerge Herbicidal Activity SETVI [17, 29] | Pre-emerge Herbicidal Activity SORHA [18, 29] | Pre-emerge Herbicidal Activity DIGSA [21, 29]
